Results as given in patent publication US10570184B2, “GLP-1/glucagon receptor co-agonists for medical use” (Novo Nordisk A/S, priority 2014, dated 2020).
Starred links: 1 amine or outer side, 2 acyl side, 3 side chain; linkers in the order of their positions; H or OH if unused. Non-standard residues stand in square brackets, D forms with d. Residues, ends and D or L forms follow the SMILES beside them. Groups on a side chain read outwards from the residue. *: point of attachment. C18 diacid = O=C(O)CCCCCCCCCCCCCCCCC(=O)*; γGlu = O=C(O)[C@H](CCC(=O)[*:2])N[*:1]; AEEA = NCCOCCOCC(=O)O; Aib = CC(C)(N)C(=O)O

target: T1, human GLP-1 receptor (Homo sapiens, UniProt P43220); test: Assay (II)(a) GLP-1 receptor binding, 125I-GLP-1 displacement SPA on BHK membranes; details: without presence of serum albumin; read-out: GLP-1R IC50 (nM) [Assay (II)(a)]
T1 construct: expressed in transfected cells; host or cells: membranes of BHK cells (parent BHKTS13), clone FCW467-12A
Method: The GLP-1 receptor (GLP-1R) binding is a measure of affinity of a compound for the human GLP-1 receptor. The receptor binding of each compound to the human GLP-1 receptor was measured in a displacement binding assay. In this type of assay a labelled ligand (in this case 125I-GLP-1) is bound to the receptor. Each derivative was added in a series of concentrations to isolated membranes containing the human GLP-1 receptor and displacement of the labelled ligand was monitored. The receptor binding was reported as the concentration at which half of the labelled ligand was displaced from the receptor, the IC50 value. In order to test the binding of the derivatives to albumin, the assay may be performed in a very low concentration of serum albumin (max. 0.001% final assay concentration) as well as in the presence of a (considerably) higher concentration of serum albumin (2.0% final assay concentration). An increase of the IC50 value, in the presence of serum albumin indicates an affinity to serum albumin and represents a method to predict a protracted pharmacokinetic profile of the test substance in animal models. The following chemicals were used in the assay: DMEM w/o phenol red (Gibco 11880-028), Pen/strep (Invitrogen 15140-122), G418 (Invitrogen 10131-027), 1 M Hepes (Gibco 15630), EDTA (Invitrogen 15575-038), PBS (Invitrogen 14190-094), fetal calf serum (Invitrogen 16140-071), EGTA, MgCl2 (Merck 1.05832.1000), Tween 20 (Amresco 0850C335), SPA particles (wheat germ agglutinin (WGA) SPA beads, Perkin Elmer RPNQ0001), [125I]-GLP-1]-(7-36)NH2 (produced in-house), OptiPlate™-96 (Perkin Elmer). Buffer 1 consisted of 20 mM Na-HEPES plus 10 mM EDTA and pH was adjusted to 7.4. Buffer 2 consisted of 20 mM Na-HEPES plus 0.1 mM EDTA and pH was adjusted to 7.4. Assay buffer consisted of 50 mM HEPES supplemented with 5 mM EGTA, 5 mM MgCl2, 0.005% Tween 20 and pH was adjusted to 7.4. The cells used in this assay (clone FCW467-12A) were BHK cells with BHKTS13 as a parent cell line. The cells express the human GLP-1 receptor. The cells were grown at 5% CO2 in DMEM, 10% fetal calf serum, 1% Pen/Strep (Penicillin/Streptomycin) and 1.0 mg/ml of the selection marker G418. To make a membrane preparation the cells were grown to approximately 80% confluence. The cells were washed twice in phosphate-buffered saline and harvested. The cells were pelleted using a brief centrifugation and the cell pellet was kept on ice. The cell pellet was homogenised with ULTRA-THURRAX dispersing instrument for 20-30 seconds in a suitable amount of buffer 1 (e.g., 10 ml). The homogenate was centrifuged for 15 minutes. The pellet was re-suspended (homogenised) in 10 ml buffer 2 and centrifuged. This step was repeated once more. The resulting pellet was re-suspended in buffer 2 and the protein concentration was determined. The membranes were aliquoted and stored at minus 80° C. • 1. For the receptor binding assay, 50 μl of the assay buffer was added to each well of an assay plate. • 2. Test compounds were serially diluted to give the following concentrations: 8×10EE-7 M, 8×10EE-8 M, 8×10EE-9 M, 8×10EE-10 M, 8×10EE-11 M, 8×10EE-12 M and 8×10EE-13 M. Twenty-five μl were added to appropriate wells in the assay plate. • 3. Cell membrane aliquots were thawed and diluted to their working concentration. Fifty μl were added to each well in the assay plate. • 4. WGA SPA beads were suspended in assay buffer at 20 mg/ml. The suspension was diluted to 10 mg/ml in assay buffer just prior to addition to the assay plate. Fifty μl were added to each well in the assay plate. • 5. The incubation was started by adding 25 μl of […] solution of [125I]-GLP-1]-(7-36)NH2 to each well of the assay plate. A 25 μl aliquot was reserved for measuring total counts/well. • 6. The assay plate was incubated for 2 h at 30° C. • 7. The assay plate was centrifuged for 10 min. • 8. The assay plate was read in a Perkin Elmer TopCount NXT instrument. […]

T1 sequence (P43220 24-463): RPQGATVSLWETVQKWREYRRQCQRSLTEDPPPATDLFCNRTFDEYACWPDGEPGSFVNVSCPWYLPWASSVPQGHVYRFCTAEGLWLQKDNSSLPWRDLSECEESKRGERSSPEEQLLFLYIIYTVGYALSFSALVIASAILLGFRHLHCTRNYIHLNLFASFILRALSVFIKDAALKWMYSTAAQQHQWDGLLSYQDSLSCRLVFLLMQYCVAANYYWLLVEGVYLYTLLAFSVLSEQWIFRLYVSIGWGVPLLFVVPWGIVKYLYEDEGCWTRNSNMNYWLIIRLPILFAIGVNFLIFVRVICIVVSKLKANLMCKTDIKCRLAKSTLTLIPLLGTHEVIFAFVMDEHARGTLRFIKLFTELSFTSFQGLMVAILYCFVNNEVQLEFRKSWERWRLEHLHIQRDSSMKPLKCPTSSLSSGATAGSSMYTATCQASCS

Row | IC50 [nM] | Structure (SMILES)
1 | 0.9 | CC[C@H](C)[C@H](NC(=O)[C@H](CC(C)C)NC(=O)[C@H](Cc1c[nH]c2ccccc12)NC(=O)[C@H](CCCCNC(=O)COCCOCCNC(=O)COCCOCCNC(=O)CC[C@H](NC(=O)CC[C@H](NC(=O)CC[C@H](NC(=O)CCCCCCCCCCCCCCCCC(=O)O)C(=O)O)C(=O)O)C(=O)O)NC(=O)[C@@H](NC(=O)[C@H](Cc1ccccc1)NC(=O)[C@H](CC(=O)O)NC(=O)[C@H](CCCNC(=N)N)NC(=O)[C@H](C)NC(=O)[C@H](CCCNC(=N)N)NC(=O)[C@H](CCCNC(=N)N)NC(=O)[C@H](C)NC(=O)[C@H](CC(=O)O)NC(=O)[C@H](CC(C)C)NC(=O)[C@H](Cc1ccc(O)cc1)NC(=O)[C@H](CCCCN)NC(=O)[C@H](CO)NC(=O)[C@H](Cc1ccc(O)cc1)NC(=O)[C@H](CC(=O)O)NC(=O)[C@H](CO)NC(=O)[C@@H](NC(=O)[C@H](Cc1ccccc1)NC(=O)[C@@H](NC(=O)CNC(=O)[C@H](CCC(N)=O)NC(=O)C(C)(C)NC(=O)[C@@H](N)Cc1c[nH]cn1)[C@@H](C)O)[C@@H](C)O)C(C)C)C(=O)N[C@@H](CO)C(=O)N[C@H](C(N)=O)[C@@H](C)O [Chem. 1, N^ε24-[2-[2-[2-[[2-[2-[2-[[(4S)-4-carboxy-4-[[(4S)-4-carboxy-4-[[(4S)-4-carboxy-4-(17-carboxyheptadecanoylamino)butanoyl]amino]butanoyl]amino]butanoyl]amino]ethoxy]ethoxy]acetyl]amino]ethoxy]ethoxy]acetyl]-[Aib2,Ala16,Arg20,Lys24,Ile27,Ser28]-Glucagon amide] (H-H[Aib]QGTFTSDYSKYLDARRARDFVK([AEEA-AEEA-γGlu-γGlu-γGlu-C18 diacid])WLIST-NH2)
2 | 0.1 | CC[C@H](C)[C@H](NC(=O)[C@H](CC(C)C)NC(=O)[C@H](Cc1c[nH]c2ccccc12)NC(=O)[C@H](CCC(N)=O)NC(=O)[C@@H](NC(=O)[C@H](Cc1ccccc1)NC(=O)[C@H](CC(=O)O)NC(=O)[C@H](CCCNC(=N)N)NC(=O)[C@H](C)NC(=O)[C@H](CCCNC(=N)N)NC(=O)[C@H](CCCNC(=N)N)NC(=O)[C@H](C)NC(=O)[C@H](CC(=O)O)NC(=O)[C@H](CC(C)C)NC(=O)[C@H](Cc1ccc(O)cc1)NC(=O)[C@H](CCCCN)NC(=O)[C@H](CO)NC(=O)[C@H](CC(C)C)NC(=O)[C@H](CC(=O)O)NC(=O)[C@H](CO)NC(=O)[C@@H](NC(=O)[C@H](Cc1ccccc1)NC(=O)[C@@H](NC(=O)CNC(=O)[C@H](CCC(N)=O)NC(=O)C(C)(C)NC(=O)[C@@H](N)Cc1c[nH]cn1)[C@@H](C)O)[C@@H](C)O)C(C)C)C(=O)N[C@@H](CCCCNC(=O)COCCOCCNC(=O)COCCOCCNC(=O)CC[C@H](NC(=O)CC[C@H](NC(=O)CC[C@H](NC(=O)CCCCCCCCCCCCCCCCC(=O)O)C(=O)O)C(=O)O)C(=O)O)C(=O)N[C@H](C(N)=O)[C@@H](C)O [Chem. 5, N^ε28-[2-[2-[2-[[2-[2-[2-[[(4S)-4-carboxy-4-[[(4S)-4-carboxy-4-[[(4S)-4-carboxy-4-(17-carboxyheptadecanoylamino)butanoyl]amino]butanoyl]amino]butanoyl]amino]ethoxy]ethoxy]acetyl]amino]ethoxy]ethoxy]acetyl]-[Aib2,Leu10,Ala16,Arg20,Ile27,Lys28]-Glucagon amide] (H-H[Aib]QGTFTSDLSKYLDARRARDFVQWLIK([AEEA-AEEA-γGlu-γGlu-γGlu-C18 diacid])T-NH2; N-terminus assumed)
3 | 0.5 | CC[C@H](C)[C@H](NC(=O)[C@H](CC(C)C)NC(=O)[C@H](Cc1c[nH]c2ccccc12)NC(=O)[C@H](CCC(N)=O)NC(=O)[C@@H](NC(=O)[C@H](Cc1ccccc1)NC(=O)[C@H](CC(=O)O)NC(=O)[C@H](CCC(N)=O)NC(=O)[C@H](C)NC(=O)[C@H](CCCNC(=N)N)NC(=O)[C@H](CCCNC(=N)N)NC(=O)[C@H](CC(C)C)NC(=O)[C@H](CC(=O)O)NC(=O)[C@H](CC(C)C)NC(=O)[C@H](Cc1ccc(O)cc1)NC(=O)[C@H](CCCCN)NC(=O)[C@H](CO)NC(=O)[C@H](CC(C)C)NC(=O)[C@H](CC(=O)O)NC(=O)[C@H](CO)NC(=O)[C@@H](NC(=O)[C@H](Cc1ccccc1)NC(=O)[C@@H](NC(=O)CNC(=O)[C@H](CCC(N)=O)NC(=O)C(C)(C)NC(=O)[C@@H](N)Cc1c[nH]cn1)[C@@H](C)O)[C@@H](C)O)C(C)C)C(=O)N[C@@H](CCCCNC(=O)COCCOCCNC(=O)COCCOCCNC(=O)CC[C@H](NC(=O)CC[C@H](NC(=O)CC[C@H](NC(=O)CCCCCCCCCCCCCCCCC(=O)O)C(=O)O)C(=O)O)C(=O)O)C(=O)N[C@H](C(N)=O)[C@@H](C)O [Chem. 9, N^ε28-[2-[2-[2-[[2-[2-[2-[[(4S)-4-carboxy-4-[[(4S)-4-carboxy-4-[[(4S)-4-carboxy-4-(17-carboxyheptadecanoylamino)butanoyl]amino]butanoyl]amino]butanoyl]amino]ethoxy]ethoxy]acetyl]amino]ethoxy]ethoxy]acetyl]-[Aib2,Leu10,Leu16,Ile27,Lys28]-Glucagon amide] (H-H[Aib]QGTFTSDLSKYLDLRRAQDFVQWLIK([AEEA-AEEA-γGlu-γGlu-γGlu-C18 diacid])T-NH2; N-terminus assumed)
4 | 0.5 | CC[C@H](C)[C@H](NC(=O)[C@H](CC(C)C)NC(=O)[C@H](Cc1c[nH]c2ccccc12)NC(=O)[C@H](CCCCNC(=O)COCCOCCNC(=O)COCCOCCNC(=O)CC[C@H](NC(=O)CC[C@H](NC(=O)CC[C@H](NC(=O)CCCCCCCCCCCCCCCCC(=O)O)C(=O)O)C(=O)O)C(=O)O)NC(=O)[C@@H](NC(=O)[C@H](Cc1ccccc1)NC(=O)[C@H](CC(=O)O)NC(=O)[C@H](CCCNC(=N)N)NC(=O)[C@H](C)NC(=O)[C@H](CCCNC(=N)N)NC(=O)[C@H](CCCNC(=N)N)NC(=O)[C@H](CO)NC(=O)[C@H](CCC(=O)O)NC(=O)[C@H](CC(C)C)NC(=O)[C@H](Cc1ccc(O)cc1)NC(=O)[C@H](CCCCN)NC(=O)[C@H](CO)NC(=O)[C@H](Cc1ccc(O)cc1)NC(=O)[C@H](CC(=O)O)NC(=O)[C@H](CO)NC(=O)[C@@H](NC(=O)[C@H](Cc1ccccc1)NC(=O)[C@@H](NC(=O)CNC(=O)[C@H](CCC(N)=O)NC(=O)C(C)(C)NC(=O)[C@@H](N)Cc1c[nH]cn1)[C@@H](C)O)[C@@H](C)O)C(C)C)C(=O)N[C@@H](CO)C(=O)N[C@H](C(N)=O)[C@@H](C)O [Chem. 11, N^ε24-[2-[2-[2-[[2-[2-[2-[[(4S)-4-carboxy-4-[[(4S)-4-carboxy-4-[[(4S)-4-carboxy-4-(17-carboxyheptadecanoylamino)butanoyl]amino]butanoyl]amino]butanoyl]amino]ethoxy]ethoxy]acetyl]amino]ethoxy]ethoxy]acetyl]-[Aib2,Glu15,Arg20,Lys24,Ile27,Ser28]-Glucagon amide] (H-H[Aib]QGTFTSDYSKYLESRRARDFVK([AEEA-AEEA-γGlu-γGlu-γGlu-C18 diacid])WLIST-NH2)
